Molecules are shown by their SMILES.

Results on 10 compounds are retold here after patent US8188085B2, “Antifungal agents” (Merck Sharp & Dohme Corp., priority 2008, dated 2012).

Sequence of glucan synthase (GS) prepared from Candida albicans MY1055 (O13428 1-1897): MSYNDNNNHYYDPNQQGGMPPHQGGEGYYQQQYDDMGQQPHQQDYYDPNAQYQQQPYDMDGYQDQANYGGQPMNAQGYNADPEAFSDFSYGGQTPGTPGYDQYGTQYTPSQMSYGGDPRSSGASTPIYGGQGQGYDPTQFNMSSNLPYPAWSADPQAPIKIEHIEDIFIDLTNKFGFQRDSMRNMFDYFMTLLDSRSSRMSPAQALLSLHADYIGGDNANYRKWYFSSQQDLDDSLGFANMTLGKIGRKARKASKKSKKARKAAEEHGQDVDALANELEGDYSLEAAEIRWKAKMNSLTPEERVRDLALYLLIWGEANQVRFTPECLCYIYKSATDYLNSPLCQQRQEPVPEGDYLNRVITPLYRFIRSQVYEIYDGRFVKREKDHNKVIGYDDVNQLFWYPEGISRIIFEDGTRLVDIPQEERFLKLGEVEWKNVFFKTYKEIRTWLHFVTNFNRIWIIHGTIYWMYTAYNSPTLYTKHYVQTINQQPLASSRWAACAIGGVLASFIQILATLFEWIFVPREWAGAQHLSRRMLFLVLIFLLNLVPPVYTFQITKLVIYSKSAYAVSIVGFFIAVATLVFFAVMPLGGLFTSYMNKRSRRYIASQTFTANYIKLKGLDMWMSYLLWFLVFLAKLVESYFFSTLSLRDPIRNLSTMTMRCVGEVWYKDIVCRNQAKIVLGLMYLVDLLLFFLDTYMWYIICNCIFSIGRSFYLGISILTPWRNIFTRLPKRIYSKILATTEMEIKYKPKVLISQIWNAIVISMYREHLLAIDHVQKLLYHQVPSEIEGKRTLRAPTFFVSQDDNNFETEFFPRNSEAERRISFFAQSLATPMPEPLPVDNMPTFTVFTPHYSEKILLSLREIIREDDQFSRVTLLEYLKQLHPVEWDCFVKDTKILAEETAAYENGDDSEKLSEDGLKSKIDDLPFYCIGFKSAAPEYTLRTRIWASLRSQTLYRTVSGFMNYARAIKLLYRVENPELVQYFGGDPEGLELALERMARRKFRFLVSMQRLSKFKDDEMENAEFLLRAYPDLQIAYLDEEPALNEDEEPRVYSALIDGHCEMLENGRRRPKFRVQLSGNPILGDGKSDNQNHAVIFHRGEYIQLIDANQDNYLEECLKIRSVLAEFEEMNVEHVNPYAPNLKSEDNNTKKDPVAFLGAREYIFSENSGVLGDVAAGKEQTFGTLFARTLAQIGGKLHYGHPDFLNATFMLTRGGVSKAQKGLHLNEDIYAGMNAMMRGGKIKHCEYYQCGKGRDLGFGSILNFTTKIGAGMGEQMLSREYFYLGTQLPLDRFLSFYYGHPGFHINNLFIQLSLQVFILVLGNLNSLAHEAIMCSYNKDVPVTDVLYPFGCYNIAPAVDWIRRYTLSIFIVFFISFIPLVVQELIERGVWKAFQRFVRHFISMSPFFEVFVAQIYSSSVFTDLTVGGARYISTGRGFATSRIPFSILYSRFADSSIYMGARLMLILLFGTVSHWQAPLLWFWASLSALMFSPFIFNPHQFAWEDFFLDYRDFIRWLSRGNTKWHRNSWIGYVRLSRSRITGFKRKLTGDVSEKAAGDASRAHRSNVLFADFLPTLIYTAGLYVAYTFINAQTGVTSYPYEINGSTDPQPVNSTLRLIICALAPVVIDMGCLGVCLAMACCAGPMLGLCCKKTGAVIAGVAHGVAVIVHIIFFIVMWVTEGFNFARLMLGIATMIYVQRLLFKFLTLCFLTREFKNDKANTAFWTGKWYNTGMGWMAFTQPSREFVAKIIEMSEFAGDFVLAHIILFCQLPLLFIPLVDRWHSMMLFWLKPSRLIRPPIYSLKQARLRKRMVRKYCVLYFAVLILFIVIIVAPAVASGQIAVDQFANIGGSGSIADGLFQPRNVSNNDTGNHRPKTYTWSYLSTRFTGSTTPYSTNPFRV

This experiment concerns the target glucan synthase (GS) prepared from Candida albicans MY1055 (Candida albicans, UniProt O13428). Kind of experiment: Glucan synthase inhibition (polymerization assay, 96-well). Type of experiment: biochemical. The note with it: GS from C. albicans MY1055; 60 min incubation at 22° C.; read-out: Candida Albicans GS IC50 (converted). The gist of the method: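 Partially purified glucan synthase from C. albicans MY1055 membranes incorporated 0.5 mM ³H-UDPG with 25 μM GTP-γ-S, HEPES pH 7.5, over 60 min at 22 °C. TCA-precipitated glucan was counted by scintillation. IC50 (ng/mL) came from sigmoidal fits of duplicate 3-fold dilution series.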
The term IC50 denotes the concentration at which inhibition is half-maximal. In the case of `CNC1(CO[C@H]2[C@H](n3ncnc3C(N)=O)C[C@@]34COC[C@]2(C)[C@@H]3CC[C@H]2C4=CC[C@@]3(C)[C@H](C(=O)O)[C@@](C)([C@H](C)C(C)C)CC[C@]23C)CCCCC1` [Example 107, (1S,4aR,6aS,7R,8R,10aR,10bR,12aR,14R,15R)-14-[5-(aminocarbonyl)-1H-1,2,4-triazol-1-yl]-8-[(1R)-1,2-dimethylpropyl]-15-[[1-(methylamino)cyclohexyl]methoxy]-1,6,6a,7,8,9,10,10a,10b,11,12,12a-dodecahydro-1,6a,8,10a-tetramethyl-4H-1,4a-propano-2H-phenanthro[1,2-c]pyran-7-carboxylic acid], the IC50 is 0.0198 µM.

Consider `CNC(=O)c1ncnn1[C@@H]1C[C@@]23COC[C@](C)([C@@H]2CC[C@H]2C3=CC[C@@]3(C)[C@H](C(=O)O)[C@@](C)([C@H](C)C(C)C)CC[C@]23C)[C@H]1OCC1(N)CCOCC1` [Example 112, (1S,4aR,6aS,7R,8R,10aR,10bR,12aR,14R,15R)-15-[(4-aminotetrahydro-2H-pyran-4-yl)methoxy]-8-[(1R)-1,2-dimethylpropyl]-14-[5-[(methylamino)carbonyl]-1H-1,2,4-triazol-1-yl]-1,6,6a,7,8,9,10,10a,10b,11,12,12a-dodecahydro-1,6a,8,10a-tetramethyl-4H-1,4a-propano-2H-phenanthro[1,2-c]pyran-7-carboxylic acid], for which the IC50 is 0.00986 µM.

As for `CNC(=O)c1ncnn1[C@@H]1C[C@@]23COC[C@](C)([C@@H]2CC[C@H]2C3=CC[C@@]3(C)[C@H](C(=O)O)[C@@](C)([C@H](C)C(C)C)CC[C@]23C)[C@H]1OCC1(NC)CCSCC1` [Example 116, (1S,4aR,6aS,7R,8R,10aR,10bR,12aR,14R,15R)-8-[(1R)-1,2-dimethylpropyl]-14-[5-[(methylamino)carbonyl]-1H-1,2,4-triazol-1-yl]-15-[[tetrahydro-4-(methylamino)-2H-thiopyran-4-yl]methoxy]-1,6,6a,7,8,9,10,10a,10b,11,12,12a-dodecahydro-1,6a,8,10a-tetramethyl-4H-1,4a-propano-2H-phenanthro[1,2-c]pyran-7-carboxylic acid], the concentration for half-maximal inhibition (IC50) was 0.0203 µM.

Take `CC(C)[C@@H](C)[C@@]1(C)CC[C@]2(C)[C@H]3CC[C@@H]4[C@@]5(COC[C@@]4(C)[C@@H](OC[C@](C)(N)C(C)C)[C@H](n4nc(N)nc4C(N)=O)C5)C3=CC[C@@]2(C)[C@@H]1C(=O)O` [Example 119, (1S,4aR,6aS,7R,8R,10aR,10bR,12aR,14R,15R)-14-[3-amino-5-(aminocarbonyl)-1H-1,2,4-triazol-1-yl]-15-[[(2R)-2-amino-2,3-dimethylbutyl]oxy]-8-[(1R)-1,2-dimethylpropyl]-1,6,6a,7,8,9,10,10a,10b,11,12,12a-dodecahydro-1,6a,8,10a-tetramethyl-4H-1,4a-propano-2H-phenanthro[1,2-c]pyran-7-carboxylic acid]: the IC50 is 0.0129 µM.

Consider `CC(C)[C@@H](C)[C@@]1(C)CC[C@]2(C)[C@H]3CC[C@@H]4[C@@]5(COC[C@@]4(C)[C@@H](OC[C@](C)(N)C(C)(C)C)[C@H](n4ncnc4S(N)(=O)=O)C5)C3=CC[C@@]2(C)[C@@H]1C(=O)O` [Example 123C, (1S,4aR,6aS,7R,8R,10aR,10bR,12aR,14R,15R)-14-[5-(aminosulfonyl)-1H-1,2,4-triazol-1-yl]-15-[[(2R)-2-amino-2,3,3-trimethylbutyl]oxy]-8-[(1R)-1,2-dimethylpropyl]-1,6,6a,7,8,9,10,10a,10b,11,12,12a-dodecahydro-1,6a,8,10a-tetramethyl-4H-1,4a-propano-2H-phenanthro[1,2-c]pyran-7-carboxylic acid], for which the IC50 was 0.00546 µM.

With `CCCNS(=O)(=O)c1ncnn1[C@@H]1C[C@@]23COC[C@](C)([C@@H]2CC[C@H]2C3=CC[C@@]3(C)[C@H](C(=O)O)[C@@](C)([C@H](C)C(C)C)CC[C@]23C)[C@H]1OCC(N)(CC)CC` [Example 126, (1S,4aR,6aS,7R,8R,10aR,10bR,12aR,14R,15R)-15-(2-amino-2-ethylbutoxy)-8-[(1R)-1,2-dimethylpropyl]-14-[5-[(propylamino)sulfonyl]-1H-1,2,4-triazol-1-yl]-1,6,6a,7,8,9,10,10a,10b,11,12,12a-dodecahydro-1,6a,8,10a-tetramethyl-4H-1,4a-propano-2H-phenanthro[1,2-c]pyran-7-carboxylic acid], the IC50 is 0.0342 µM.

As for `CC(C)[C@@H](C)[C@@]1(C)CC[C@]2(C)[C@H]3CC[C@@H]4[C@@]5(COC[C@@]4(C)[C@@H](OC[C@](C)(N)C(C)C)[C@H](n4ncnc4C4=NCCN4)C5)C3=CC[C@@]2(C)[C@@H]1C(=O)O` [Example 128, (1S,4aR,6aS,7R,8R,10aR,10bR,12aR,14R,15R)-15-[[(2R)-2-amino-2,3-dimethylbutyl]oxy]-14-[5-(4,5-dihydro-1H-imidazol-2-yl)-1H-1,2,4-triazol-1-yl]-8-[(1R)-1,2-dimethylpropyl]-1,6,6a,7,8,9,10,10a,10b,11,12,12a-dodecahydro-1,6a,8,10a-tetramethyl-4H-1,4a-propano-2H-phenanthro[1,2-c]pyran-7-carboxylic acid], the IC50 was 0.00849 µM.

On to `CN[C@@](C)(CO[C@H]1[C@H](n2ncnc2C2=NCCCN2)C[C@@]23COC[C@]1(C)[C@@H]2CC[C@H]1C3=CC[C@@]2(C)[C@H](C(=O)O)[C@@](C)([C@H](C)C(C)C)CC[C@]12C)C(C)(C)C` [Example 136, (1S,4aR,6aS,7R,8R,10aR,10bR,12aR,14R,15R)-8-[(1R)-1,2-dimethylpropyl]-14-[5-(1,4,5,6-tetrahydro-2-pyrimidinyl)-1H-1,2,4-triazol-1-yl]-15-[[(2R)-2,3,3-trimethyl-2-(methylamino)butyl]oxy]-1,6,6a,7,8,9,10,10a,10b,11,12,12a-dodecahydro-1,6a,8,10a-tetramethyl-4H-1,4a-propano-2H-phenanthro[1,2-c]pyran-7-carboxylic acid], for which the IC50 was 0.012 µM.

As for `CC(C)[C@@H](C)[C@@]1(C)CC[C@]2(C)[C@H]3CC[C@@H]4[C@@]5(COC[C@@]4(C)[C@@H](OC[C@](C)(N)C(C)C)[C@H](n4ncnc4-n4cncn4)C5)C3=CC[C@@]2(C)[C@@H]1C(=O)O` [Example 138, (1S,4aR,6aS,7R,8R,10aR,10bR,12aR,14R,15R)-15-[[(2R)-2-amino-2,3-dimethylbutyl]oxy]-14-[1,5′-bi-1H-1,2,4-triazol]-1′-yl-8-[(1R)-1,2-dimethylpropyl]-1,6,6a,7,8,9,10,10a,10b,11,12,12a-dodecahydro-1,6a,8,10a-tetramethyl-4H-1,4a-propano-2H-phenanthro[1,2-c]pyran-7-carboxylic acid], the IC50 is 0.0085 µM.

Take `CCS(=O)(=O)c1ncnn1[C@@H]1C[C@@]23COC[C@](C)([C@@H]2CC[C@H]2C3=CC[C@@]3(C)[C@H](C(=O)O)[C@@](C)([C@H](C)C(C)C)CC[C@]23C)[C@H]1OC[C@](C)(N)C(C)C` [Example 140, (1S,4aR,6aS,7R,8R,10aR,10bR,12aR,14R,15R)-15-[[(2R)-2-amino-2,3-dimethylbutyl]oxy]-8-[(1R)-1,2-dimethylpropyl]-14-[5-(ethylsulfonyl)-1H-1,2,4-triazol-1-yl]-1,6,6a,7,8,9,10,10a,10b,11,12,12a-dodecahydro-1,6a,8,10a-tetramethyl-4H-1,4a-propano-2H-phenanthro[1,2-c]pyran-7-carboxylic acid]: the IC50 is 0.00684 µM.
